According to patent US11046753B2, “Antibody composition and buffer system therefor” (INNOVA BIOSCIENCES LTD, priority 2013, dated 2021):
“Also recorded” adds a separate entry of the source.

Columns and labels:
[1] = Lightning-Link fluorescein conjugation of goat anti-rabbit IgG in presence of additive, fluorescence assay; conditions: 50 mM additive
Experimental: Black 96-well plates (Greiner Bio-One (code 655077)) were incubated with 50 ul rabbit IgG (1 ug/well) overnight at 4° C. The plates were blocked with TBS/0.1% BSA for 1 hour at room temperature and washed five times with TBS (wash buffer). Fluorescent antibody conjugates were serially diluted in TBS/0.1% BSA and 50 ul aliquots were added to wells in triplicate. After incubation at room temperature for 1 hour, the plate was washed five times and fluorescence emission was read in using a Tecan Infinite M200 plate reader with i-Control 1.4 software with the appropriate excitation/emission settings (fluorescein, 490 nm/535 nm; phycoeythrin, 535 nm/575 nm. Fluorescence data was plotted as a function of conjugate dilution. To compare results for additives tested in different experiments the data were transformed into a percentage of a control value (i.e. the signal for conjugate prepared in the absence of any test additive).
Reactions were carried out according to the manufacturer's standard protocol except that the additives were included at up to 50 mM concentration in conjugation reactions of Goat-anti-rabbit IgG using fluorescein Lightning-Link kit (product code 707-0010, Innova Biosciences, UK). Conjugates were tested according to the protocol described in Example 2.

[2] = NHS ester (fluorescein) conjugation of rabbit IgG in presence of additive, dye to protein ratio; conditions: 50 mM additive, sodium phosphate pH 8.0
Experimental: Conjugates were desalted on PD10 columns equilibrated in TBS buffer and absorbance values of the eluted solutions were determined at 280 nm and 495 nm. The ratio of moles dye to moles of protein for antibody dye conjugates in the presence of various additives is shown in FIG. 4.

[3] = Isothiocyanate (FITC) conjugation of rabbit IgG in presence of additive, dye to protein ratio; conditions: 50 mM additive, CHES pH 9.0
Experimental: Conjugates were desalted on PD10 columns (GE Healthcare) in TBS buffer and the absorbance values of the eluted solutions were determined at 280 nm and 495 nm. The ratio of moles dye to moles of protein for antibody dye conjugates in the presence of various additives is shown in FIG. 3.

[4] = Effect of additives on the thiolation reagent 2-iminothiolane (thiol release, DTNB, A405); conditions: 50 mM additive, pH 8.0, 30 minutes
Experimental: 20 μl of 2 mM 2-iminothiolane was added to each well and mixed quickly and the absorbance values were read at 405 nm every minute for 30 minutes using a Tecan Infinite M200 plate reader with i-Control 1.4 software. […] In control reaction, there is a steady linear increase in absorbance as the reagent is hydrolysed by water. […] The rising baseline can be attributed to the known sensitivity of 2-iminothiolane to hydrolysis at alkaline pH values.

[5] = Carbodiimide (EDC)-mediated conjugation of goat anti-rabbit IgG to carboxylated gold nanoparticles in presence of additive, read by lateral flow assay; conditions: pH 5
Experimental: Molecules were tested initially at pH 5 in EDC-mediated reactions with carboxylated gold particles (InnovaCoat GOLD, Innova Biosciences). Potentially interesting molecules from this screening exercise were further evaluated in NHS ester reactions, isothiocyanate reactions and thiolation reactions involving iminothiolane. All of these reactions are widely used in the antibody conjugation field and all would be expected to suffer from interference in the presence of glycine.
Lateral flow test strips (4 mm wide) were prepared from nitrocellulose membrane (Millipore Hi Flow plus 90) striped with goat anti-rabbit IgG (test line) and biotin-BSA (control line). Strips were housed in plastic cartridges and samples of gold conjugate (80 ul) were added to the sample pad. Cartridges were allowed to stand for 30 min and then read using a ESE-Quant GOLD reader—QIAGEN. Each sample was spiked with a fixed amount of streptavidin-gold (Innova biosciences—Product code: 250-0200), which binds to the control line, to check that each test strip had run correctly and that test line data was valid.
10 μg of goat anti-rabbit IgG (GAR) was used per ml of coated 40 nm nanoparticles with carboxyl functionality (InnovaCoat GOLD, Innova Biosciences) at […] in the presence of additives at 50 mM final concentration. Typically reactions were set up with the following additions: 40 μl of 40 nm InnovaCoat (carboxylated) gold nanopartcles, were incubated 5 minutes with 4 μl 0.1 mg/ml GAR, 20 μl water, and 80 μl of 100 mM MES buffer containing 100 mM of additive, pH 5.0. Next, 16 μl of 1 mM EDC was added and after 10 min incubation at 22° C., 20 μl of 10×TBS/1% Tween20 and 20 μl of water was added to give 2 OD conjugate.
Gold conjugates were mixed when required with rabbit IgG ((final concentration 50 ng/ml) at 22° C. Conjugates were 0.2 OD final concentration (i.e. 1/10 dilution from stock conjugates). Samples were run in triplicate on lateral flow test strips as described in Example 1.

## Glycine
[1]
  interference in Lightning-Link fluorescein conjugation reaction: significant interference
[2]
  ratio of moles dye to moles of protein versus control, fluorescein NHS ester: substantial interference
[3]
  ratio of moles dye to moles of protein versus control, FITC: significant interference
[4]
  release of thiols from 2-iminothiolane versus control: rapid hydrolysis and ring opening; also recorded: reacts rapidly
[5]
  % of Signal: 94%
  interference in carbodiimide-mediated antibody-gold nanoparticle conjugation reaction: no interference; also recorded: do not interfere; also recorded: does not
